This experiment deals with Scavenger receptor class B member 1 (Mus musculus) (UniProt Q61009). Nature of the experiment: activators of SR-BI-mediated HDL uptake, dose response, cell-based, ldlA[mSR-BI] CHO, DiI fluorescence, cherry-pick (AID 602191).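 On AC40: potency of activators raising HDL uptake.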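 On activation (HDL uptake increase): 0% = median of DMSO wells and 100% = twice the DMSO signal.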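 On all read-outs here: cell fluorescence from internalized DiI-labeled HDL after washing.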 The conditions noted are these: ldlA[mSR-BI] CHO cells, 3 h; for activation (HDL uptake increase): at 35 µM (top of the series).

Active and inactive are the calls of the source.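 How the source made its calls: active means fitted curve reaches 40% activation at a concentration no higher than the top valid tested dose; inconclusive means flat fit between 30% and 70% activation, or poor fit; inactive means uptake decrease, flat fit within 30% of zero, the rest.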

Sequence of Scavenger receptor class B member 1 (Mus musculus) (Q61009 whole entry, looked up): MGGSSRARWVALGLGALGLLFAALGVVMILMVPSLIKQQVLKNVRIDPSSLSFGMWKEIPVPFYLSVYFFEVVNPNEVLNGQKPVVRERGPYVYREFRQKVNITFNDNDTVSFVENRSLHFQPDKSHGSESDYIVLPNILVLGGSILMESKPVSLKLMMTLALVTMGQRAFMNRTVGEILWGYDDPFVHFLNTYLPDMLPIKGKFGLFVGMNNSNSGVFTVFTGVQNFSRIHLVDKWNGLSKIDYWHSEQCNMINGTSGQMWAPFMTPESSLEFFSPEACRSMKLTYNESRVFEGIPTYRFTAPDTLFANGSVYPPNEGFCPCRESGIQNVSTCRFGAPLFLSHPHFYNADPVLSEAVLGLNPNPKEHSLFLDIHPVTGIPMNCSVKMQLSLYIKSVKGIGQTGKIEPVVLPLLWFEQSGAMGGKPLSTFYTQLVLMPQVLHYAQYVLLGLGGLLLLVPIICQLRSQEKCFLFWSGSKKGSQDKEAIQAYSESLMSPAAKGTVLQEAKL

In the case of `O=C1[C@H]2[C@@H](c3ccc(F)cc3)N3C(=O)N(c4ccc(Br)cc4)C(=O)[C@@]3(Cc3ccccc3)[C@H]2C(=O)N1C1CCCCC1`, the activation (HDL uptake increase) was 6.23% (inactive).

For the compound `O=C(CCN1C(=O)[C@@H]2Cc3ccccc3CN2C1=O)N[C@@H](C(=O)O)c1ccccc1`, the activation (HDL uptake increase) is -2.01% (inactive).

Consider `CC1CCCC(C)N1C(=O)COC(=O)CN1C(=O)c2ccccc2C1=O` (stereo unspecified), for which the activation (HDL uptake increase) is -4.2% (inactive).

Turning to `COc1ccc(OC)c(S(=O)(=O)NCCCN2CCCC2=O)c1`, the AC40 is > 35 µM (inactive).

Take `CNC[C@H](CC1CCCCC1)NC[C@H](Cc1ccccc1)NCCC12CC3CC(CC(C3)C1)C2`: the activation (HDL uptake increase) is -31.7% (inactive).

On to `CC(C)CCNCC(=O)NC(c1ccccc1)c1ccccc1`, for which the activation (HDL uptake increase) was -2.56% (inactive).

For `CCCNC(=O)c1onc(CSc2ccc(F)cc2)c1C(=O)NCCOC`, the activation (HDL uptake increase) was -11.4% (inactive).

With `N#CCCN1CCN(S(=O)(=O)c2ccc(C3CCCCC3)cc2)CC1`, the activation (HDL uptake increase) was 12% (inactive).

As for `Cc1cccn2c(CN[C@@H]3CCCC[C@H]3c3ccccc3)c(C(=O)N3CCOCC3)nc12`, the activation (HDL uptake increase) was -6.75% (inactive).

Consider `Cc1ccc(S(=O)(=O)NC(=O)Nc2nnc(C3CC3)s2)cc1`, for which the activation (HDL uptake increase) was 9.12% (inactive).

As for `CCCCC/C=C\C[C@H](O)/C=C/c1cccc(C[C@H](O)CCCCO)n1`, the activation (HDL uptake increase) is -14% (inactive).

Turning to `CCCn1c(N)c(N(CCOC)C(=O)c2ccc(S(=O)(=O)N3CCOCC3)cc2)c(=O)[nH]c1=O`, the activation (HDL uptake increase) was -4.96% (inactive).

As for `COc1ccc(NC(=O)N(C)C[C@H]2Oc3c(NC(=O)c4ccncc4)cccc3C(=O)N([C@H](C)CO)C[C@@H]2C)cc1`, the activation (HDL uptake increase) was -11.2% (inactive).

As to `CCN(CC)C(=O)c1ncn(Cc2ccccc2)c1C(=O)N(CC)CC`, the activation (HDL uptake increase) was -3.26% (inactive).

As to `Cc1cc(Cl)ccc1OCC(=O)OCC(=O)N1CCC(C(N)=O)CC1`, the activation (HDL uptake increase) was -16.7% (inactive).

With `COc1ccc(C(=O)C2CCCN(C(=O)/C=C/c3ccccn3)C2)c(C)c1` (stereo unspecified), the activation (HDL uptake increase) was -6.34% (inactive).

On to `COc1ccc(Oc2nc(Oc3ccc(OC)cc3)nc(Oc3ccc(OC)cc3)n2)cc1`, for which the activation (HDL uptake increase) is -9.22% (inactive).

For `Cc1[nH]c2ccccc2c1C(=O)CSC(=S)N(C)C1CCCCC1`, the activation (HDL uptake increase) was -5.9% (inactive).

With `O=C(CCC(=O)OCC(=O)c1ccc([N+](=O)[O-])cc1)Nc1ccccc1Cl`, the activation (HDL uptake increase) is -5.05% (inactive).

For the compound `COc1ccc2sc(-c3ccccc3OC)c(-c3ccc(OCCN4CCCC4)cc3)c2c1`, the AC40 is > 35 µM (inactive).

With `CCOC(=O)C1CCCN(C(=O)CS(=O)(=O)Cc2ccccc2)C1` (stereo unspecified), the activation (HDL uptake increase) is 7.75% (inactive).

With `CCc1cc(C(=O)Nc2cc(S(=O)(=O)N3CCOCC3)ccc2N2CCN(CC)CC2)sc1C`, the activation (HDL uptake increase) was -0.114% (inactive).

With `COc1ccc(N(CC(=O)NCc2ccccc2)S(=O)(=O)c2c(C)nn(C)c2C)cc1`, the activation (HDL uptake increase) was -6.65% (inactive).

Turning to `O=C(O)COCC(=O)N1CCc2c([nH]c3ccccc23)C1C(F)(F)F` (stereo unspecified), the activation (HDL uptake increase) was -5.94% (inactive).

As for `C[C@@H]1CN([C@H](C)CO)C(=O)c2cc(NC(=O)Nc3ccc(C(F)(F)F)cc3)ccc2O[C@H]1CN(C)S(=O)(=O)c1ccc(Cl)cc1`, the activation (HDL uptake increase) is 5.12% (inactive).

With `CC(C)CCNC(=O)c1onc(CSc2ccncc2)c1C(=O)NCCC(C)C`, the activation (HDL uptake increase) was 3.64% (inactive).

As to `Cc1c(CCOC(=O)C23CC4(C)CC(C)(CC(C)(C4)C2)C3)sc[n+]1CC(=O)c1ccccc1`, the AC40 was > 35 µM (inactive).

On to `O=C1NC[C@H](Cc2ccccc2)N(C[C@H]2CCCN2C[C@H](Cc2ccccc2)N2C[C@H](Cc3ccccc3)N(CC3CCCCC3)C(=O)C2=O)C1=O`, for which the activation (HDL uptake increase) is 11.2% (inactive).

On to `O=C(C[C@H]1C[C@H](C(=O)N2CCCCC2)[C@@]2(CCc3ccccc3)c3[nH]c4ccc(Cl)cc4c3CCN2C1=O)NCCc1ccccn1`, for which the AC40 is > 35 µM (inactive).

As to `CCOC(=O)c1ccc(NC(=O)c2nc[nH]c2C(=O)NCCCCNC(=O)c2[nH]cnc2C(=O)Nc2ccc(C(=O)OCC)cc2)cc1`, the AC40 was 29.8 µM.

Regarding `Cc1ncc(CN2CCC(n3nccc3NC(=O)c3ccccc3)CC2)s1`, the activation (HDL uptake increase) is 8.83% (inactive).

Take `Cc1ccc(OCC(=O)OC(C)C(=O)NC2CCCCC2C)cc1C` (stereo unspecified): the AC40 is > 35 µM (inactive).

On to `CC(=O)Nc1ccc(SCC(=O)NC(=O)c2ccc(S(=O)(=O)N(C)C)cc2)cc1`, for which the activation (HDL uptake increase) is -3.69% (inactive).

As to `Cn1nnnc1SCCNC(=O)C1CCC(=O)N(Cc2ccccc2F)C1` (stereo unspecified), the activation (HDL uptake increase) was -10.7% (inactive).

For `O=C(OCCc1cc2ccccc2c(=O)o1)c1ccc(F)cc1`, the activation (HDL uptake increase) is -13.6% (inactive).

As for `C[C@]12C[C@H](O)[C@H]3[C@@H](CCC4=CC(=O)CC[C@@]43C)[C@@H]1CC[C@@H]2C(=O)CO`, the activation (HDL uptake increase) is 6.28% (inactive).

In the case of `COc1ccccc1OCC(=O)OCc1cc(-c2ccco2)on1`, the activation (HDL uptake increase) is -5.82% (inactive).

For `CN(C)CCN(C(=O)CN1C(=O)c2ccccc2C1=O)c1nc2cc3c(cc2s1)OCCO3`, the activation (HDL uptake increase) is -2.04% (inactive).

Regarding `FC(F)(F)c1ccc(C2[C@H]3CN(Cc4cccnc4)[C@H](c4ccccc4)C34CC2(c2cccnc2)C4)cc1` (stereo partly specified), the AC40 is > 35 µM (inactive).

For the compound `O=C(CSc1nnc(CCCOc2ccc(Cl)cc2Cl)o1)Nc1ccc(C(=O)O)cc1`, the activation (HDL uptake increase) was -4.13% (inactive).

Regarding `CCN1CCN(c2ccc(S(=O)(=O)N3CCCCC3)cc2NC(=O)c2cccc(C(F)(F)F)c2)CC1`, the activation (HDL uptake increase) was 7.47% (inactive).

On to `NNC(=O)Cn1nc(Cc2ccccc2)n(N)c1=O`, for which the activation (HDL uptake increase) was -4.95% (inactive).

As to `CN(C(=O)COC(=O)CN1C(=O)c2cccc([N+](=O)[O-])c2C1=O)c1ccccc1`, the activation (HDL uptake increase) is -5.58% (inactive).

Regarding `CC1CC(C)CN(C(=O)CN2CCN(Cc3ccc(Cl)cc3)C2=O)C1` (stereo unspecified), the activation (HDL uptake increase) is -4.58% (inactive).

Regarding `Cc1c(C(=O)N2CCC(C(N)=O)CC2)sc(N)c1C#N`, the activation (HDL uptake increase) is -8.06% (inactive).

Turning to `O=C(N/N=C\c1cccnc1)c1ccc(Br)s1`, the activation (HDL uptake increase) was -10.3% (inactive).

`Cc1ccc(C(=O)NCCc2cccs2)cc1`: the activation (HDL uptake increase) was 1.64% (inactive).

In the case of `COc1ccc(NC(=O)COC(=O)c2cc(SC)ccc2Cl)c(OC)c1`, the activation (HDL uptake increase) is -14.1% (inactive).

Take `O=C(NCc1ccccn1)c1ccc(S(=O)(=O)Nc2ccccc2F)cc1`: the activation (HDL uptake increase) was 0.427% (inactive).

For the compound `Cc1ccc(C(C(=O)NC2CCCC2)N(Cc2ccc(F)cc2)C(=O)c2csnn2)o1` (stereo unspecified), the activation (HDL uptake increase) is 6.32% (inactive).

For `CC[C@]12c3[nH]c4cc(-c5ccco5)ccc4c3CCN1C(=O)[C@@H](CC(=O)NC(C)(C)C)C[C@@H]2C(=O)N1CCN(C(=O)c2ccco2)CC1`, the activation (HDL uptake increase) was -20.6% (inactive).

With `CCOC(=O)C1CCN(S(=O)(=O)c2cc(C(=O)N3CCCCC3)ccc2OC)CC1`, the activation (HDL uptake increase) was -3.08% (inactive).

Turning to `CCCC(=O)Nc1cc(C(=O)O)ccc1S(=O)(=O)c1ccc(C)cc1`, the activation (HDL uptake increase) is 1.17% (inactive).

For the compound `COC(=O)C1(C)NC(c2ccccc2OC)C2C(=O)N(c3ccccc3)C(=O)C21` (stereo unspecified), the activation (HDL uptake increase) is 7.27% (inactive).

On to `Cc1ccc(S(=O)(=O)N2CCOCC2)cc1C(=O)NCc1ccccc1CN1CCCC1`, for which the activation (HDL uptake increase) was -7.63% (inactive).

Consider `Cc1ccc(CNC(=O)CCNC(=O)c2ccc(Br)o2)cc1`, for which the activation (HDL uptake increase) was -10.8% (inactive).

`COc1ccc(NC(=O)C(NC(=O)Cc2cccs2)c2ccc(C)cc2)cc1` (stereo unspecified): the activation (HDL uptake increase) is 2.03% (inactive).

Consider `C[C@H](CO)N1C[C@H](C)[C@H](CN(C)Cc2ccc(-c3ccccc3)cc2)Oc2ccc(NS(=O)(=O)c3ccccc3)cc2CC1=O`, for which the activation (HDL uptake increase) is 44.6% (inactive).

As to `CCN1C[C@@H]2[C@@H]3C(=O)N(Cc4ccccc4)C(=O)[C@@H]3[C@](C)(C1=O)N2C(=O)c1ccc(Br)cc1`, the activation (HDL uptake increase) is 1.77% (inactive).

As to `COc1ccc2c(CC(=O)NCC3CCC(C(=O)O)CC3)cc(=O)oc2c1` (stereo unspecified), the activation (HDL uptake increase) is 15.1% (inactive).

`COc1ccccc1-c1nc(SCC(=O)Nc2ccccc2F)n[nH]1`: the activation (HDL uptake increase) was -24.3% (inactive).

With `CN(c1ccc(OCC(=O)OCC(=O)Nc2ccc([N+](=O)[O-])cc2)cc1)S(=O)(=O)c1cccs1`, the activation (HDL uptake increase) was -13.3% (inactive).

Turning to `CC(=O)N1C2CCCCC2S[C@H]2CCCCC21` (stereo partly specified), the activation (HDL uptake increase) was -4.16% (inactive).

As to `COc1ccccc1C(=O)NC(=O)COC(=O)c1cccc(NC(C)=O)c1`, the activation (HDL uptake increase) is -5.38% (inactive).

As for `CN(c1cccc(NC(=O)CN(c2ccc(C34CC5CC(CC(C5)C3)C4)cc2)S(C)(=O)=O)c1)S(C)(=O)=O`, the activation (HDL uptake increase) is 17.6% (inactive).

On to `CN(C(=O)COC(=O)c1cccc(S(=O)(=O)N2CCOCC2)c1)C1CCS(=O)(=O)C1` (stereo unspecified), for which the activation (HDL uptake increase) is 5.01% (inactive).

For `O=C(NC(=S)N(Cc1ccccc1)Cc1ccccc1)c1ccccc1F`, the activation (HDL uptake increase) is -11.7% (inactive).

Regarding `CN(C)S(=O)(=O)c1ccc(N2CCCC2)c(C(=O)NC2CCC(O)CC2)c1` (stereo unspecified), the activation (HDL uptake increase) is -3.29% (inactive).

`Cc1nc(C2CCCCC2)c(-c2ccccc2)c(N2CCOC2=O)c1C`: the activation (HDL uptake increase) is 1.15% (inactive).

Regarding `CC(C)C[C@H]1CNC(=S)N1CC1CCCN1C[C@H](Cc1ccccc1)N1C[C@H](Cc2ccc(O)cc2)N(CC2CCCCC2)C1=S` (stereo partly specified), the activation (HDL uptake increase) was -0.934% (inactive).

For `CCOc1ccc(S(=O)(=O)N2CCN=C2c2ccccc2)c(C)c1C`, the activation (HDL uptake increase) was -9.83% (inactive).

(Values after PubChem BioAssay AID602191 (Broad Institute, 2012).)
